pKi: −log10 of the molar value.

T1 sequence (Q99705 whole entry): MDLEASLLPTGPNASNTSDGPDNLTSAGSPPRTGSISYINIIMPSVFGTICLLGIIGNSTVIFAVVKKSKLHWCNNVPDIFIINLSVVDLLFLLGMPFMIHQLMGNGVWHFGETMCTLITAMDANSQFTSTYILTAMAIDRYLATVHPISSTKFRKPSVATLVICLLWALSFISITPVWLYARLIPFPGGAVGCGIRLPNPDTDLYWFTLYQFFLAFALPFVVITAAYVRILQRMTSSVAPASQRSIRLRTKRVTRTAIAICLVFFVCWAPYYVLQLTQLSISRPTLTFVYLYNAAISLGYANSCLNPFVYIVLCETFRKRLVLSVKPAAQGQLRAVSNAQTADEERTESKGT

Tested on in one data set: not given
Assay: not given
Details: not given
In the case of `CN(C)Cc1cc2cc(-c3nnc(CSCCOc4ccccc4)o3)ccc2[nH]1.O=C(O)C(=O)O` [Example 3, dimethyl-{5-[5-(2-phenoxy-ethylsulfanylmethyl)-[1,3,4]oxadiazol-2-yl]-1H-indol-2-ylmethyl}-amine oxalate], the melting point (as a rule, the temperature of the solid-liquid transition) is 147 to 150 °C.

`CN(C)Cc1cc2ccc(-c3nnc(CSCCOc4ccccc4)o3)cc2[nH]1` [Example 4, dimethyl-{6-[5-(2-phenoxy-ethylsulfanylmethyl)-[1,3,4]oxadiazol-2-yl]-1H-indol-2-ylmethyl}-amine]: the melting point is 128 to 130 °C.

`CN(C)Cc1cc2ccc(-c3nnc(CSCCOc4ccccc4)o3)cc2n1C.O=C(O)C(=O)O` [Example 5, dimethyl-{1-methyl-6-[5-(2-phenoxy-ethylsulfanylmethyl)-[1,3,4]oxadiazol-2-yl]-1H-indol-2-ylmethyl}-amine oxalate] gave a melting point of 125.5 to 129 °C.

On to `CN(C)Cc1c[nH]c2ccc(-c3nnc(CSCCOc4ccccc4)o3)cc12.O=C(O)C(=O)O` [Example 6, dimethyl-{5-[5-(2-phenoxy-ethylsulfanylmethyl)-[1,3,4]oxadiazol-2-yl]-1H-indol-3-ylmethyl}-amine oxalate], for which the melting point was in the range of 159 to 163 °C.

Consider `CN(C)Cc1c[nH]c2cc(-c3nnc(CSCCOc4ccccc4)o3)ccc12.O=C(O)/C=C\C(=O)O` [Example 7, Dimethyl-{6-[5-(2-phenoxy-ethylsulfanylmethyl)-[1,3,4]oxadiazol-2-yl]-1H-indol-3-ylmethyl}-amine maleate], for which the melting point fell in the range of 127 to 129 °C.

Molecule `CN(C)Cc1cn(C)c2ccc(-c3nnc(CSCCOc4ccccc4)o3)cc12.O=C(O)C(=O)O` [Example 8, dimethyl-{1-methyl-5-[5-(2-phenoxy-ethylsulfanylmethyl) -[1,3,4]oxadiazol-2-yl]-1H-indol-3-ylmethyl}-amine oxalate] displayed a melting point of 151 to 154 °C.

`CN(C)Cc1ccc2cc(-c3nnc(CSCCOc4ccccc4)o3)ccc2c1` [Example 11, Dimethyl-{6-[5-(2-phenoxy-ethylsulfanylmethyl)-[1,3,4]oxadiazol-2-yl]-naphthalen-2-ylmethyl}-amine] gave a melting point of 95 to 96 °C.

The molecule `O=C(O)/C=C\C(=O)O.c1ccc(OCCSCc2nnc(-c3ccc4cc(CN5CCCC5)ccc4c3)o2)cc1` [Example 12, 2-(2-Phenoxy-ethylsulfanylmethyl)-5-(6-pyrrolidin-1-ylmethyl-naphthalen-2-yl)-[1,3,4]oxadiazole maleate] had a melting point of 133 to 135 °C.

In turn, `c1ccc(OCCSCc2nnc(-c3ccc4cc(CN5CCCCC5)ccc4c3)o2)cc1` [Example 13, 1 -{6-[5-(2-phenoxy-ethylsulfanylmethyl)-[1,3,4]oxadiazol-2-yl]-naphthalen-2-ylmethyl}-piperidine] yielded a melting point of 93 to 94 °C.

Another data set has as its target T1, human MCHR1 (Homo sapiens, UniProt Q99705).
T1 construct: The full-length cDNA for human MCHR1 was cloned; expressed in transfected cells; host or cells: AV12 cells previously transfected with the promiscuous G protein G(alpha)15; membranes
The data set is described as follows: competitive 125I-MCH binding assay with clone 43 membranes (SPA). The following applies: 125I-MCH (100 pM) displacement, Ki from IC50 by Cheng-Prusoff, tested in duplicate. The protocol:
(§1) The full-length cDNA for human MCHR1 was cloned from a human adult brain cDNA library (Edge Biosystems, Cat. 38356) by standard polymerase chain reaction (PCR) methodology employing the following primers: sense, 5′-GCCACCATGGACCT GGAAGCCTCGCTGC-3′; anti-sense, 5′-[…]-3′. The PCR reaction was performed in a final volume of 50 μl containing 5 μl of a 10× stock solution of PCR buffer, 1 μl of 10 mM dNTP mixture (200 μM final), 2 μl of 50 mM Mg(SO4) (2 mM final), 0.5 μl of 20 μM solutions of each primer (0.2 μM final), 5 μl of template cDNA containing 0.5 ng DNA, 0.5 μl of Platinum Taq High Fidelity DNA polymerase (Gibco Life Technologies) and 36 μl of H2O. PCR amplification was performed on a Perkin Elmer 9600 thermocycler. After denaturation for 90 sec at 94° C., the amplification sequence consisting of 94° C. for 25 sec, 55° C. for 25 sec and 72° C. for 2 min was repeated 30 times, followed by a final elongation step at 72° C. for 10 min. The desired PCR product (1.1 Kb) was confirmed by agarose gel electrophoresis and the band was extracted from the gel by Geneclean (Bio101) following the manufacturer's instructions. Following extraction, the cDNA fragment was cloned into pCR2.1-TOPO plasmid (Invitrogen) to confirm the identity and sequence.
(§2) In order to generate cell lines stably expressing MCHR1, the insert was then subcloned into the Xba I and Not I sites of pcDNA(+)-3.1-neomycin (Invitrogen). After purification by Qiagen Maxi-prep kit (QIAGEN, Inc.), the plasmid was transfected by Fugene 6 (Roche Applied Science) into AV12 cells that had been previously transfected with the promiscuous G protein G[…]15. The transfected cells were selected by G418 (800 μg/ml) for. 10-14 days and single colonies were isolated from culture plates. The G418-resistant colonies were further selected for MCHR1 expression by measuring MCH-stimulated Ca^2+ transients with a fluorometric imaging plate reader (FLIPR, Molecular Devices).
Both the ^125I-MCH binding and functional GTPγ^35S binding assays employed membranes isolated from a clone designated as clone 43. Typically, cells from 20 confluent T225 flasks were processed by washing the monolayers in cold phosphate-buffered saline (PBS), scraping the cells into same and re-suspending the cell pellet in 35 ml of 250 mM Sucrose, 50 mM HEPES, pH 7.5, 1 mM MgCl2, 24 μg/ml DNase I, and protease inhibitors (1 Complete® tablet, per 50 ml of buffer prepared, Roche Diagnostics). After incubation on ice for 5 min, cells were disrupted with 20-25 strokes of a Teflon/Glass homogenizer attached to an overhead motorized stirrer, and the homogenate was centrifuged at 40,000 rpm in Beckman Type 70.1 Ti rotor. The pellets were re-suspended in 250 mM Sucrose, 50 mM HEPES, pH 7.5, 1.5 mM CaCl2, 1 mM MgSO4 and protease inhibitors by Teflon/Glass homogenization to achieve a protein concentration of ˜3-5 mg/ml (Pierce BCA assay with Bovine serum albumin as standard). Aliquots were stored at −70° C.
Binding of compounds to MCHR1 was assessed in a competitive binding assay employing ^125I-MCH, compound and clone 43 membranes. Briefly, assays are carried out in 96-well Costar 3632 white opaque plates in a total volume of 200 μl containing 25 mM HEPES, pH 7.5, 10 mM CaCl2, 2 mg/ml bovine serum albumin, 0.5% dimethyl sulfoxide (DMSO), 4 μg of clone 43 membranes, 100 pM ^125I-MCH (NEN), 1.0 mg of wheat germ agglutinin scintillation proximity assay beads (WGA-SPA beads, Amersham) and a graded dose of test compound. Non-specific binding is assessed in the presence of 1 μM unlabeled MCH. Bound ^125I-MCH is determined by placing sealed plates in a Microbeta Trilux (Wallac) and counting after a 5 hr delay.
IC50 values (defined as the concentration of test compound required to reduce specific binding of ^125I-MCH by 50%) are determined by fitting the concentration-response data to a 4-parameter model (max response, min response, Hill coefficient, IC50) using Excel. […]
In the case of `O=C1c2ccc(-c3nnc(CSCCOc4ccccc4)o3)cc2CN1CCN1CCCCC1`, the pKi (as a rule, the negative decadic logarithm of the Ki, by convention in mol/L) was 5.97.

Regarding `O=C1c2cc(-c3nnc(CSCCOc4ccccc4)o3)ccc2CN1CCN1CCCCC1`, the pKi is 5.70.

The molecule `CN(C)Cc1cc2cc(-c3nnc(CSCCOc4ccccc4)o3)ccc2[nH]1` gave a negative logarithm of the Ki (pKi) of 6.72.

As to `c1ccc(OCCSCc2nnc(-c3ccc4cc(CN5CCCC5)ccc4c3)o2)cc1`, the pKi was 8.14.

`CN(C)Cc1c[nH]c2cc(-c3nnc(CSCCOc4ccccc4)o3)ccc12` had a pKi of 6.17.

`CN(C)Cc1cn(C)c2ccc(-c3nnc(CSCCOc4ccccc4)o3)cc12` gave a negative logarithm of the Ki (pKi) of 4.96.

As to `CN(C)Cc1cc2ccc(-c3nnc(CSCCOc4ccccc4)o3)cc2o1` [drawing 39], the negative-log Ki (pKi) is 6.43.

`CN(C)Cc1cc2ccc(-c3nnc(CSCCOc4ccccc4)o3)cc2o1` [drawing 41] had a negative-log Ki (pKi) of 6.42.

`CN(C)Cc1ccc2cc(-c3nnc(CSCCOc4ccccc4)o3)ccc2c1` [drawing 44] gave a pKi of 8.09.

`c1ccc(OCCSCc2nnc(-c3ccc4cc(CN5CCCCC5)ccc4c3)o2)cc1` [drawing 47] showed a pKi of 7.75.

On to `CN(C)Cc1cc2cc(-c3nnc(CSCCOc4ccccc4)o3)ccc2o1` [drawing 50], for which the negative-log Ki (pKi) was 6.63.

Take `CN(C)Cc1cc2cc(-c3nnc(CSCCOc4ccccc4)o3)ccc2o1` [drawing 52]: the negative logarithm of the Ki (pKi) is 6.82.

Turning to `CN(C)Cc1cc2ccc(-c3nnc(CSCCOc4ccccc4)o3)cc2[nH]1` [drawing 54], the pKi was 7.46.

The target of another data set is T1, human MCHR1. The data set is described as follows: inhibition of MCH-stimulated GTPγ35S binding to clone 43 membranes (functional antagonism). To be noted: 40 nM MCH-stimulated GTPγ35S binding, Kb from IC50 by modified Cheng-Prusoff (Leff and Dougal), tested in duplicate. The data set is classed as biochemical. As for the experimental part:
as §1
as §2, with “Devices). […]” for “Devices).”
Functional antagonism of MCH activity is assessed by measuring the ability of test compound to inhibit MCH-stimulated binding of GTPγ^35S to clone 43 membranes. […]
For orientation: Binding of GTPγS marks nucleotide exchange on a G protein.
On to `c1ccc(OCCSCc2nnc(-c3ccc4cc(CN5CCCC5)ccc4c3)o2)cc1`, for which the antagonist equilibrium constant (Kb) – broadly, the affinity of an antagonist, worked out from how it opposes an agonist – is 0.007 µM.

With `CN(C)Cc1ccc2cc(-c3nnc(CSCCOc4ccccc4)o3)ccc2c1` [drawing 44], the Kb is 0.0118 µM.

`c1ccc(OCCSCc2nnc(-c3ccc4cc(CN5CCCCC5)ccc4c3)o2)cc1` [drawing 47] had an antagonist equilibrium constant (Kb) of 0.0584 µM.

These data come from patent US20070135485A1, “Novel mch receptor antagonists” (priority 2003, published 2007).
